The numbers were not newly measured in US20250257300A1, “MICROTITER-PLATE-BASED HIGH THROUGHPUT PERFUSION BIOREACTOR” (THE GEORGE WASHINGTON UNIVERSITY, priority 2022, published 2025), which cites them from elsewhere.

In the data set the test system is Pseudomonas aeruginosa biofilms. The settings on record: Pseudomonas aeruginosa biofilms growing on urinary catheters vs planktonic cells.

Regarding `NC[C@H]1O[C@H](O[C@H]2[C@H](O)[C@@H](O[C@H]3O[C@H](CO)[C@@H](O)[C@H](N)[C@H]3O)[C@H](N)C[C@@H]2N)[C@H](N)C[C@@H]1O` [tobramycin], the “resistance of biofilms to tobramycin relative to planktonic cells” value is 1000 times.
